The values below come from ChEMBL document CHEMBL4715869, “N-(Pyrimidin-2-yl)-1,2,3,4-tetrahydroisoquinolin-6-amine Derivatives as Selective Janus Kinase 2 Inhibitors for the Treatment of Myeloproliferative Neoplasms” (J Med Chem, 2020).

The nature of data set [1]: Cytotoxicity against rat H9c2(2-1) cells assessed as reduction in cell viability incubated for 72 hrs by MTT assay. It is filed as cell-based. The following applies: H9c2, 72 h. Background: Tetrazolium dyes change colour on reduction, which living cells bring about.
In data set [2] the test system is SET-2. The data set is described as follows: Induction of apoptosis in human SET-2 cells assessed as early apoptotic cells at 0.05 uM incubated for 24 hrs by Annexin V/PI staining based flow cytometric analysis (reference value: 1.47 %). The format is functional. A general note: Flow cytometry measures light scatter and fluorescence of single cells or particles in a stream.

Data set [3] concerns SET-2. As to the kind of experiment: Induction of apoptosis in human SET-2 cells assessed as necrotic cells at 0.2 uM incubated for 24 hrs by Annexin V/PI staining based flow cytometric analysis (reference value: 0.78%). The format is functional.
Data set [4] deals with T1, Tyrosine-protein kinase JAK3 (Homo sapiens, UniProt P52333).
T1 sequence (P52333 whole entry): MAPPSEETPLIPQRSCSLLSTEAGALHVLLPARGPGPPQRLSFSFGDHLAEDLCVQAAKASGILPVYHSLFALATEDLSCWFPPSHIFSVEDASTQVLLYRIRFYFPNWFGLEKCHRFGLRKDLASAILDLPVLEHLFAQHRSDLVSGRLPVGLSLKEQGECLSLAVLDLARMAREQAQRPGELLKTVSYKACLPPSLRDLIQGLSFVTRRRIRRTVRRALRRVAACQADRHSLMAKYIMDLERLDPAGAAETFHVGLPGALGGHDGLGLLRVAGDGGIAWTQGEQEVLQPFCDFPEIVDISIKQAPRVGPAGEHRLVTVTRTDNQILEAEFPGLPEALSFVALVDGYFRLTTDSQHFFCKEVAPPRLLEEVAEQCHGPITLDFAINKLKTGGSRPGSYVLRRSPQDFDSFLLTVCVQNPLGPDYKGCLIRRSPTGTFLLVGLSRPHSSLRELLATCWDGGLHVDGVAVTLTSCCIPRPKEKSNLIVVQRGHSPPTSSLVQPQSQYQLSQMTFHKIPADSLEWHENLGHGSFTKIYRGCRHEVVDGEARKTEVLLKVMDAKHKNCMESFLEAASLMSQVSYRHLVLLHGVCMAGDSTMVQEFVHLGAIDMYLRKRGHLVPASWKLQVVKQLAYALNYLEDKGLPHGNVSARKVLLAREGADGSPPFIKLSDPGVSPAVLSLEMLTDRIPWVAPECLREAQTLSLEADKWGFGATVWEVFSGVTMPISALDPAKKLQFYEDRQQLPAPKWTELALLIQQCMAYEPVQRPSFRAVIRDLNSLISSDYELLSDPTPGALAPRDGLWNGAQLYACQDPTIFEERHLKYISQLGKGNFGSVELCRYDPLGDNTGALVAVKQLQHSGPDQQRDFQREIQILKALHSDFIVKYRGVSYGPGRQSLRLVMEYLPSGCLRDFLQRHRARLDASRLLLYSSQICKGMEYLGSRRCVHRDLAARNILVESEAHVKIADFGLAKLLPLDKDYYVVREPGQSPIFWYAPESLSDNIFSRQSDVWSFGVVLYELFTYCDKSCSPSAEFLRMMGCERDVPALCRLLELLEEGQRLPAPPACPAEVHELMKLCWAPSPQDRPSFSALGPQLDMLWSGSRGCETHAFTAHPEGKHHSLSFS
As to the kind of experiment: Inhibition of recombinant human JAK3 (781 to end residues) using GGEEEEYFELVKKKK as substrate measured after 40 mins in presence of [gamm33P]ATP by scintillation counting method.

Data set [5] relates to Mus musculus. As to the kind of experiment: In vivo inhibition of JAK2 V617F mutant in mouse BAF3 cells xenografted Balb/c nude mouse assessed as decrease in STAT5 phosphorylation in spleen at 30 to 60 mg/kg, po qd administered starting from day 4 to 20 and measured on day 25 by Western blot analysis. The following applies: dose 30-60 mg/kg, time 21.0 day. The format is functional, organism-based. Background: Immunoblotting shows a protein as a band on a membrane.

Data set [6] in a line: Toxicity in Balb/c mouse assessed as effect on hematocrit at 30 to 60 mg/kg, po administered daily for 14 days. The following applies: in vivo, 336 h, dose 30-60 mg/kg, time 14 day. The format is organism-based.
Data set [7] concerns Tyrosine-protein kinase JAK2 (Homo sapiens), O60674 [V617F]. As to the kind of experiment: Inhibition of JAK2 V617F mutant in human SET-2 cells assessed as reduction in JAk2 phosphorylation after 2 hrs by Western blot analysis. It is filed as cell-based. The following applies: SET2, dose 1-1000 nM.
Data set [8] is described as follows: Tmax in male Sprague-Dawley rat at 5 mg/kg, po administered via gavage measured upto 24 hrs by LC/MS/MS analysis. The format is ADME, organism-based. The conditions noted are these: in vivo.
For data set [9], the system named is Receptor-type tyrosine-protein kinase FLT3 (Homo sapiens), P36888 [UNDEFINED MUTATION]. The data set is described as follows: Inhibition of FLT3 ITD mutant in human MOLM13 cells assessed as residual activity at 100 nM relative to control. The format is cell-based. The following applies: MOLM-13.
Data set [10] deals with Non-receptor tyrosine-protein kinase TYK2 (Homo sapiens, UniProt P29597). The data set is described as follows: Inhibition of recombinant human TYK2 (875 to end residues) using GGMEDIYFEFMGGKKK as substrate incubated for 40 mins in presence of [gamma33P]ATP by scintillation counting based radiometry assay.
Data set [11] deals with Tyrosine-protein kinase JAK1 (Homo sapiens, UniProt P23458). As to the kind of experiment: Inhibition of human JAK1 (866 to end residues) using GEEPLYWSFPAKKK as substrate after 40 mins by [gamma-33ATP] radiometric assay.
The species entered for data set [12] is Homo sapiens. The data set is described as follows: Selectivity index, ratio of IC50 for inhibition of FLT3 ITD mutant in human MOLM13 cells to IC50 for inhibition of JAK2 V617F mutant in human SET-2 cells. It is filed as cell-based.
Data set [13] can be described thus: Cmax in male Sprague-Dawley rat at 5 mg/kg, iv administered […] measured upto 24 hrs by LC/MS/MS analysis. It is filed as ADME, organism-based. Details: route intravenous, dose 5 mg/kg, time <=24. The following applies: in vivo.
Data set [14] relates to Tyrosine-protein kinase JAK2 (Mus musculus), Q62120 [V617F]. As to the kind of experiment: Inhibition of JAK2 V617F mutant in mouse BAF3 cells assessed as decrease in STAT5 phosphorylation at 50 nM after 2 hrs by Western blot analysis. The format is cell-based.
Data set [15] can be described thus: Apparent clearance in Sprague-Dawley rat at 5 mg/kg, iv administered […] measured upto 24 hrs by LC/MS/MS analysis. It is filed as ADME, organism-based. The following applies: in vivo, read-out: CL(app) (converted).
The nature of data set [16]: Elimination half life in male Sprague-Dawley rat at 5 mg/kg, iv administered […] measured upto 24 hrs by LC/MS/MS analysis. It is filed as ADME, organism-based. The conditions noted are these: in vivo, read-out: beta t1/2 (converted).
Data set [17] can be described thus: Intrinsic clearance in rat liver microsomes. It is filed as ADME, Microsome. The following applies: read-out: CLH (converted).
Data set [18] in a line: Selectivity index, ratio of IC50 for inhibition of recombinant human JAK3 (781 to end residues) to IC50 for inhibition of recombinant human JAK2 (808 to end residues).

pIC50: −log10 of the molar value. Activity calls are given as the source filed them. The rule behind the calls is not given here.

Sequence of Non-receptor tyrosine-protein kinase TYK2 (P29597 whole entry): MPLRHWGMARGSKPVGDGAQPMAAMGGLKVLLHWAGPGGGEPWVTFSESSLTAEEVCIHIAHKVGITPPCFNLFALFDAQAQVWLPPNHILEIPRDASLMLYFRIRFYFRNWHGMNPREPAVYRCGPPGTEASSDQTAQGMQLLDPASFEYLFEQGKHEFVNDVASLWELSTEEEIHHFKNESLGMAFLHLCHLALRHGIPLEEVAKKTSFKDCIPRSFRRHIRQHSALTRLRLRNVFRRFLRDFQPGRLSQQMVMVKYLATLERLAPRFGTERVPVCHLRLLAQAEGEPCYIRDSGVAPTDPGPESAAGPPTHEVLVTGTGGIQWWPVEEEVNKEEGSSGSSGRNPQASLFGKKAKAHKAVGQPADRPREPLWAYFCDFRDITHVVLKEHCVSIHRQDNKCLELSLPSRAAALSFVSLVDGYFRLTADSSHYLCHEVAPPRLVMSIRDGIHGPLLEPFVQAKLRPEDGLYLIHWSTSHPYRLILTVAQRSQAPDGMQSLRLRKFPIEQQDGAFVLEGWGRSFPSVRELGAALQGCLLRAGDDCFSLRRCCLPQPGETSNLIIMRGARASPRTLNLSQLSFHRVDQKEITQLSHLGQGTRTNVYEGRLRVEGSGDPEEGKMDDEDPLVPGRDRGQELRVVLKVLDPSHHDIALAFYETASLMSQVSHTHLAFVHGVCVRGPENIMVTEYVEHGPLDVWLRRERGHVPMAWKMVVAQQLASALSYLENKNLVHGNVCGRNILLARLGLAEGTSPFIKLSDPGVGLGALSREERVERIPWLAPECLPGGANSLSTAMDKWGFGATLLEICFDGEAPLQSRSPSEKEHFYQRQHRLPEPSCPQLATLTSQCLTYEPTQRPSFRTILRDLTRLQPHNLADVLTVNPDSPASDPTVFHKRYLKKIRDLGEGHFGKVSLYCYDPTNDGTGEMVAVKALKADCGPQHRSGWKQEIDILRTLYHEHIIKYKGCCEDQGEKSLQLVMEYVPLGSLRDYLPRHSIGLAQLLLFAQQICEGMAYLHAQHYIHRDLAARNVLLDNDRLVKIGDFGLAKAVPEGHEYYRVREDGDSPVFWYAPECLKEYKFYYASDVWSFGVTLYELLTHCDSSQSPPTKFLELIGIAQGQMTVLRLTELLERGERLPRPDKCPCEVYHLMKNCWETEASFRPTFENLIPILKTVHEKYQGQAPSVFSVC
Sequence of Receptor-type tyrosine-protein kinase FLT3 (Homo sapiens), P36888 [UNDEFINED MUTATION] (P36888 whole entry, looked up, stated change not applied): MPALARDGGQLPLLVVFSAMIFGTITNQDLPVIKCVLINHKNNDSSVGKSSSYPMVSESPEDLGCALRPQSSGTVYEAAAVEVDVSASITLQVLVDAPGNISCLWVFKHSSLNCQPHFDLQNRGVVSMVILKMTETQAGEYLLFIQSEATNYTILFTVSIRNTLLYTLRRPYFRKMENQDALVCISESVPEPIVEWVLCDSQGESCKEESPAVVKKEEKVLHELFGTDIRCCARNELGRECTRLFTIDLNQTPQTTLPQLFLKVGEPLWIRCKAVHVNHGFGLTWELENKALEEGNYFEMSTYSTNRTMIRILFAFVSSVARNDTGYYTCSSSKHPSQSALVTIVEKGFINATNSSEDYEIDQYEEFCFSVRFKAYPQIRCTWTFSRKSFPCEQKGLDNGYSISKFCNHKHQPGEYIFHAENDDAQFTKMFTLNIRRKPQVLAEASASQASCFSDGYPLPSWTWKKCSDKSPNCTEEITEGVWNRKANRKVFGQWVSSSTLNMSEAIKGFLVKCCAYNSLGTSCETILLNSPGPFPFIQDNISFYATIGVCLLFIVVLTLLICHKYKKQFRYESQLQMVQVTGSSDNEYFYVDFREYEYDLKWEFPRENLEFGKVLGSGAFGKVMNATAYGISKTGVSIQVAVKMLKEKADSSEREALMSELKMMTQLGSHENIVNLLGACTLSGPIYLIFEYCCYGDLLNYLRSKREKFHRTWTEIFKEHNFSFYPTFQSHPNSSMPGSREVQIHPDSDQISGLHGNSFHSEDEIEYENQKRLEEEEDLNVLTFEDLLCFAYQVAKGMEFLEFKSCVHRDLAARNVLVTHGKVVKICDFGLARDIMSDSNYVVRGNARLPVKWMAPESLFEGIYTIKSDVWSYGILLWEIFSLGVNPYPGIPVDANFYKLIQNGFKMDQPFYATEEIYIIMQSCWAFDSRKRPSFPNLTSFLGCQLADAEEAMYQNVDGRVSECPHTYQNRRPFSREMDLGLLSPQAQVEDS
Sequence of Tyrosine-protein kinase JAK2 (Mus musculus), Q62120 [V617F] (Q62120 as listed by the source): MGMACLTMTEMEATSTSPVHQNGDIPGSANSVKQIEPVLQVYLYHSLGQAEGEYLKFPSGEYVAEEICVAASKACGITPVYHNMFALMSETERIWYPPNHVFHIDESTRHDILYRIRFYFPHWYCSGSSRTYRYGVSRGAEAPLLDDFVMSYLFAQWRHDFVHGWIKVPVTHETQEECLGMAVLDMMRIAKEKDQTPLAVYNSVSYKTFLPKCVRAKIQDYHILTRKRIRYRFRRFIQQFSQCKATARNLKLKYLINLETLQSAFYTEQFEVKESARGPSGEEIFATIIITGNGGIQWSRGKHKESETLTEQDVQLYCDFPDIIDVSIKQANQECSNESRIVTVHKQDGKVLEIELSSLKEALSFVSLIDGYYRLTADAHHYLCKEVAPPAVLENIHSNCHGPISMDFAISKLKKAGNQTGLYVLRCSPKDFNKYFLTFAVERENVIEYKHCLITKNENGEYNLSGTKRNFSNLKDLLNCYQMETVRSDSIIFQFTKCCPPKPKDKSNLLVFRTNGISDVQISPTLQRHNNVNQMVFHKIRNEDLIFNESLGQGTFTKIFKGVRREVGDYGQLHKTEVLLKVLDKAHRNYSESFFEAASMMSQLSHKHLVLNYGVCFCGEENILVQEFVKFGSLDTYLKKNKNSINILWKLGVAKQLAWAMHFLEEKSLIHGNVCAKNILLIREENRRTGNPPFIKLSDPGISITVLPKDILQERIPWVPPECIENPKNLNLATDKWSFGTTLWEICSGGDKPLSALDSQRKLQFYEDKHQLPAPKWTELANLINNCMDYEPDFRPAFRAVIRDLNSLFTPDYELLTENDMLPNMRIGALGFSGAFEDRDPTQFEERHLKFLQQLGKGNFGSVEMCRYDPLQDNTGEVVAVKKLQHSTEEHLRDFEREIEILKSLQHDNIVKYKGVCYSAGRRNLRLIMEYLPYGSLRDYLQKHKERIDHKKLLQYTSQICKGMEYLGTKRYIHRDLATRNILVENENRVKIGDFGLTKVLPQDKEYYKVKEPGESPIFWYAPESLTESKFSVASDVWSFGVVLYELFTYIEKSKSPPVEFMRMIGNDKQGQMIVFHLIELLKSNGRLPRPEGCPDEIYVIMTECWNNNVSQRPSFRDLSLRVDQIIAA
Sequence of Tyrosine-protein kinase JAK2 (Homo sapiens), O60674 [V617F] (O60674 whole entry V617F): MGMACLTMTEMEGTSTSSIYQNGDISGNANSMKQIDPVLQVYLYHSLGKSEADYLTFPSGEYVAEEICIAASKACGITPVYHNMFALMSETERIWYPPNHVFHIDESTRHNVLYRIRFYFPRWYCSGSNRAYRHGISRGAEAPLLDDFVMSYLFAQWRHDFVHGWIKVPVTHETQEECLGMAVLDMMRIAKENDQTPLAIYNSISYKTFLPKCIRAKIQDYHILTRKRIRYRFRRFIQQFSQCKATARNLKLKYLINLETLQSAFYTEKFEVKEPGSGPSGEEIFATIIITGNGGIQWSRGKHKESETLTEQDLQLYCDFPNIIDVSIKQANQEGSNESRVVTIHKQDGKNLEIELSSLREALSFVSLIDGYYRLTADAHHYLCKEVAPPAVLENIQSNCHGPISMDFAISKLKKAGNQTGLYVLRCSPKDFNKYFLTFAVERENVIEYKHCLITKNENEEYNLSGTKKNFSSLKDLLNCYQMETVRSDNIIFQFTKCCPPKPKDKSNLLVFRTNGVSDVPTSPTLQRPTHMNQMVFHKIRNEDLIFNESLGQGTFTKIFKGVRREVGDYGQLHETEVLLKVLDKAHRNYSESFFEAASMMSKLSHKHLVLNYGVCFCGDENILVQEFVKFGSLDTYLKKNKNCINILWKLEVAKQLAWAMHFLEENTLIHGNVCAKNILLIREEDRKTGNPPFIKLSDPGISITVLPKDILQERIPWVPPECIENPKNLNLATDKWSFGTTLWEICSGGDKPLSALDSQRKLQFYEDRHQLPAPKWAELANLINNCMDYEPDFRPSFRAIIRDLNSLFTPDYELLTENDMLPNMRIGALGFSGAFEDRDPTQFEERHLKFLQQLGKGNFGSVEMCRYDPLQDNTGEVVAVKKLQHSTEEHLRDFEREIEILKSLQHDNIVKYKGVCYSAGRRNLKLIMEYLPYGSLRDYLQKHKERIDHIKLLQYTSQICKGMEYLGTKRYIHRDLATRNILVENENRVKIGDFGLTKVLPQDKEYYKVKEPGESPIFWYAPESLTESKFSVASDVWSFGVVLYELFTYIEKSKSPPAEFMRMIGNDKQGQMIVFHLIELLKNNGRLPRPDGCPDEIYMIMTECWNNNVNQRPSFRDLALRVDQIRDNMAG

On to `Cc1cnc(Nc2ccc3c(c2)CCN(C(=O)/C=C/CN(C)C)C3)nc1-c1cnn(C(C)C)c1`, for which the pIC50 was 5.16 in [1], 7.03 in [4], 7.12 in data set [10] and 7.38 in data set [11]. Moreover, the Activity is 2.7% in data set [2], 0.63% in data set [3], “Toxic” in data set [6] and 54% in data set [9]. Besides, the inhibition entry in data set [5] and in [14] was “Active” throughout. Moreover, the inhibition entry in data set [7] is “Dose-dependent effect”. Further, the Tmax in data set [8] is 0.9 h. For the same molecule, the figures for the Ratio IC50 in data set [12] and in [18] were 75.2 and 31, respectively. For the same molecule, the highest concentration (Cmax) in data set [13] was found to be 479 ng/mL. In addition, in data set [15], the clearance is 83.5 mL/min/kg. Also, the half-life in data set [16] was 4 h. In addition, the CLint scaled in data set [17] is 423 mL/min/kg.

In general, pIC50 refers to the negative decadic logarithm of the IC50, by convention in mol/L. One may read the Tmax as the time from dosing to the highest level. The term Cmax denotes the highest concentration seen after dosing.
